In PMC5029940, “High Throughput Random Mutagenesis and Single Molecule Real Time Sequencing of the Muscle Nicotinic Acetylcholine Receptor” (PLoS ONE, 2016) one finds EC50 and IC50 data, which are given here for four compounds.

Common to all, as to format: cell-based
Assay [1] addresses T1, human muscle nicotinic acetylcholine receptor (nAChR), adult form, (α1)2β1δε (Homo sapiens, UniProt P02708+Q04844+Q07001, P02708:Y233N).
T1 construct: gene CHRNA1; full-length untagged subunits; CMV-alpha1 plasmid plus EF1alpha beta1-delta-epsilon triple plasmid, transient in HEK293; heteropentamer; with Acetylcholine receptor subunit beta
Nature of the assay: Fluo-4 Ca2+ flux, FLIPR. From the text:
(§1) Fluo-4 Ca2+ flux, FLIPR on human muscle nicotinic acetylcholine receptor (nAChR), adult form, (α1)2β1δε

For assay [2], the target named is T2, human muscle nicotinic acetylcholine receptor (nAChR), adult form, (α1)2β1δε (Homo sapiens, UniProt P02708+Q04844+Q07001, P02708:V275M).
T2 construct: gene CHRNA1; full-length untagged subunits; CMV-alpha1 plasmid plus EF1alpha beta1-delta-epsilon triple plasmid, transient in HEK293; heteropentamer; with Acetylcholine receptor subunit beta
The experiment in a line: Fluo-4 Ca2+ flux, FLIPR.
Text: as §1
A general note: A change in cytosolic calcium serves as a functional read-out for many receptors and channels.

For assay [3], the target named is T3, human muscle nicotinic acetylcholine receptor (nAChR), adult form, (α1)2β1δε (Homo sapiens, UniProt P02708+Q04844+Q07001).
T3 construct: gene CHRNA1; full-length untagged subunits; CMV-alpha1 plasmid plus EF1alpha beta1-delta-epsilon triple plasmid, transient in HEK293; heteropentamer; with Acetylcholine receptor subunit beta
Nature of the assay: Fluo-4 Ca2+ flux, FLIPR. The conditions noted are these: read-out: α1-Wt / EC50.
Text: as §1

The target of assay [4] is T4, human muscle nicotinic acetylcholine receptor (nAChR), adult form, (α1)2β1δε (Homo sapiens, UniProt P02708+Q04844+Q07001, P02708:Y233H).
T4 construct: gene CHRNA1; full-length untagged subunits; CMV-alpha1 plasmid plus EF1alpha beta1-delta-epsilon triple plasmid, transient in HEK293; heteropentamer; with Acetylcholine receptor subunit beta
Nature of the assay: Fluo-4 Ca2+ flux, FLIPR.
Text: as §1

Assay [5] addresses T3, human muscle nicotinic acetylcholine receptor (nAChR), adult form, (α1)2β1δε. The experiment in a line: Fluo-4 Ca2+ flux, FLIPR, inhibition of epibatidine response.
Target sequence in this assay (P02708 21-457): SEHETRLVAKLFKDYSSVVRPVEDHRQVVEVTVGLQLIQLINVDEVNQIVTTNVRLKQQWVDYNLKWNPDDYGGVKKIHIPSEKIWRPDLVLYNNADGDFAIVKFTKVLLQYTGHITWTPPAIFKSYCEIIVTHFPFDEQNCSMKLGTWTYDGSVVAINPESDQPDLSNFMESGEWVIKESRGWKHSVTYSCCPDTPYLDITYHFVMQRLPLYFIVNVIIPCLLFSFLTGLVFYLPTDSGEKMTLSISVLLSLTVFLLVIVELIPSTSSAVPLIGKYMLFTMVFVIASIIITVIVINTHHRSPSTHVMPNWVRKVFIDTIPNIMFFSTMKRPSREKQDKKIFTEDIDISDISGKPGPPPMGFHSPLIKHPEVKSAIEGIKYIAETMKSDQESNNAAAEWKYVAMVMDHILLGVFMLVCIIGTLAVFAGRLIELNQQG
Target sequence in this assay (Q07001 22-517): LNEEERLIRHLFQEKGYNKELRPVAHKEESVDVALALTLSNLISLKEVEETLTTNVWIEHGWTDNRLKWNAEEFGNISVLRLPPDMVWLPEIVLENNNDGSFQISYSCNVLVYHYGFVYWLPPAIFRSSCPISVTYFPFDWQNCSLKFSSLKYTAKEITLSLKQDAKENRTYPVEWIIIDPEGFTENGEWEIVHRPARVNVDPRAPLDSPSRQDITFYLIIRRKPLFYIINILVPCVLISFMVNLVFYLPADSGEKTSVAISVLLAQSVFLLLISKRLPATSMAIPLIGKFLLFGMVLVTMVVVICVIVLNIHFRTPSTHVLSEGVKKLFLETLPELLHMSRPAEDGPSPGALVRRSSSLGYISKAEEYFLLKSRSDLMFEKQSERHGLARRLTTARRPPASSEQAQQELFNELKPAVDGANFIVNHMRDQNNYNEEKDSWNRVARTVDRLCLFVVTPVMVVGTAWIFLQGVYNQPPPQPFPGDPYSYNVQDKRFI
Target sequence in this assay (Q04844 21-493): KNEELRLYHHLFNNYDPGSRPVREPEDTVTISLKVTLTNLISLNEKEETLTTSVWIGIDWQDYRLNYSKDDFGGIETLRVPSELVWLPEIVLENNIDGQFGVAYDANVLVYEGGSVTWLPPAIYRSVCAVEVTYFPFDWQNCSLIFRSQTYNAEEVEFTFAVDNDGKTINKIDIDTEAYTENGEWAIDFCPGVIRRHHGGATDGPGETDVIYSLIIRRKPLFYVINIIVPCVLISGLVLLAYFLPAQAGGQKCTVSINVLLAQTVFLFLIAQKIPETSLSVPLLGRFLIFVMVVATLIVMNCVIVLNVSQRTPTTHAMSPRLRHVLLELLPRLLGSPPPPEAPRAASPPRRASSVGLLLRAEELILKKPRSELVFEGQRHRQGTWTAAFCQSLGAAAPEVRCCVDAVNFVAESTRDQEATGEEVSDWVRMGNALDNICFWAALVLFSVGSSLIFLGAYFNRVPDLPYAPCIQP
Target sequence in this assay (P11230 24-501 partner): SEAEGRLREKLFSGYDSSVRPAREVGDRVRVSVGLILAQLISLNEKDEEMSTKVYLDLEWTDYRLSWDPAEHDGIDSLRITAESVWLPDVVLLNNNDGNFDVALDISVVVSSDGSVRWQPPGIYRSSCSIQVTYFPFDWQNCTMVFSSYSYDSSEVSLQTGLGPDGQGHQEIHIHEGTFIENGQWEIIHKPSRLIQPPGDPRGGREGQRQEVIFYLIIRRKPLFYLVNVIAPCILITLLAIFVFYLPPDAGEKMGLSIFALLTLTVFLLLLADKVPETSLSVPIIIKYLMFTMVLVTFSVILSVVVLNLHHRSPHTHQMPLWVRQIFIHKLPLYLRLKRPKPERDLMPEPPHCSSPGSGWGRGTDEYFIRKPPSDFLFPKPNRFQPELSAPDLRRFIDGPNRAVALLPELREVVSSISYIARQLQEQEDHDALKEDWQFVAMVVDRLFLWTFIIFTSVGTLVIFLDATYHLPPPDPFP

The structures appear in SMILES notation.

Regarding `O=c1cccc2n1C[C@@H]1CNC[C@H]2C1` [Cytisine], the EC50 in assay [1] was determined as 1180 ± 76 nM; in assay [2], 592 ± 153 nM; in assay [3] it was 2350 ± 367 nM; in assay [4], 650 ± 93 nM.
As to `C[N+]1(C)CCN(c2ccccc2)CC1` [DMPP], the EC50 in assay [1] was found to be 705 ± 22 nM; in assay [2], 67 ± 15 nM; in assay [3], 1630 ± 203 nM; in assay [4], 161 ± 10 nM.
`CN1CCC[C@H]1c1cccnc1` [Nicotine]: the EC50 in assay [1] was determined as 1380 ± 96 nM; in assay [2], 557 ± 226 nM; in assay [3], 3650 ± 1040 nM; in assay [4], 1390 ± 117 nM.
On to `COc1cc2c3cc1Oc1cc(ccc1O)C[C@@H]1c4c(cc(OC)c(O)c4Oc4ccc(cc4)C[C@@H]3N(C)CC2)CC[N+]1(C)C` [tubocurarine], for which, in assay [5], the IC50 (usually the point on the concentration scale where inhibition reaches its midpoint) turned out to be 3200 ± 2400 nM.
